Data set [1] deals with DNA (cytosine-5)-methyltransferase 1 (Homo sapiens, UniProt P26358). Put plainly: Inhibition of human DNMT1 enzyme using polydeoxy-inosine polydeoxy-cytosine DNA as substrate incubated for 15 mins in presence of SAM by TR-FRET assay. On the technique in general: TR-FRET usually uses a lanthanide donor and a delayed reading to cut background.
For data set [2], the target named is T1, Protein deacetylase HDAC6 (Homo sapiens, UniProt Q9UBN7).
T1 sequence (Q9UBN7 whole entry): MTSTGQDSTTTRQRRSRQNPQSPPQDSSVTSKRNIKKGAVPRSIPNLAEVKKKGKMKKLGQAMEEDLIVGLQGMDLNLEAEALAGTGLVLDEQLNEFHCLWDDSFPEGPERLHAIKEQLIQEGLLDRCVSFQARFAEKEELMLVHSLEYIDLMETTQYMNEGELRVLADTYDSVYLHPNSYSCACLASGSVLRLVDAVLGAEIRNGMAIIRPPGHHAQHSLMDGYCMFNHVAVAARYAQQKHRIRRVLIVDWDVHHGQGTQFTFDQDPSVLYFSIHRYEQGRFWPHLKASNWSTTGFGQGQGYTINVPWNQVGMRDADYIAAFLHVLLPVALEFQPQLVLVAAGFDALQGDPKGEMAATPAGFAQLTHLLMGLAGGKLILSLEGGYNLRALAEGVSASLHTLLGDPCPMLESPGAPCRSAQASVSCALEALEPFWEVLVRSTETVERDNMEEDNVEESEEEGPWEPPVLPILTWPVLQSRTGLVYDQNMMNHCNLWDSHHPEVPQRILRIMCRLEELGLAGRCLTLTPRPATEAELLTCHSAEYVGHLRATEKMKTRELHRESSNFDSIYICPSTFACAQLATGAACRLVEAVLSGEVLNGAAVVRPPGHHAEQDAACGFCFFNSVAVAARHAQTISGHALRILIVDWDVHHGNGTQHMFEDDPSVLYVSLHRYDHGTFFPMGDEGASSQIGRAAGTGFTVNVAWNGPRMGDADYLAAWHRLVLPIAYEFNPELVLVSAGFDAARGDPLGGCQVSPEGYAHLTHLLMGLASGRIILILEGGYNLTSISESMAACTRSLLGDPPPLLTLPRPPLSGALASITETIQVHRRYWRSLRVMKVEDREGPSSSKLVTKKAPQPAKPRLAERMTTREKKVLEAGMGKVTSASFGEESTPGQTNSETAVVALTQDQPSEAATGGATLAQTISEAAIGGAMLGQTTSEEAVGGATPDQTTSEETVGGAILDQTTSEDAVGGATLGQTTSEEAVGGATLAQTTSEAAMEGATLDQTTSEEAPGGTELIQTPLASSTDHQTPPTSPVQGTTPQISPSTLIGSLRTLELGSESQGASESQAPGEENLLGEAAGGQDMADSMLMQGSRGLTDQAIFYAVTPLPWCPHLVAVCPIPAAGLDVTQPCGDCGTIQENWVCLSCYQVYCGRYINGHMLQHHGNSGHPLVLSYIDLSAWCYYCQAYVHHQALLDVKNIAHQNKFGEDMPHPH
In words: Inhibition of full length human N-terminal GST-tagged HDAC6 using fluorogenic acetylated peptide as substrate incubated for 30 mins by fluorescence plate reader assay.

Data set [3] has as its target CYP2D6 (Homo sapiens, UniProt P10635). In words: Inhibition of CYP2D6 in human liver microsomes at 10 uM incubated for 10 mins in presence of NADPH by LC-MS/MS analysis relative to control. The class given is ADME.
A short description of data set [4]: Apparent volume of distribution during terminal phase in BALB/c RAG2-/- gammaC-/- mouse at 10 mg/kg, ip using 80% saline 10% Tween20 and 10% DMSO formulation measured up to 24 hrs by UPLC-triple quadrupole MS analysis. The note with it: in vivo, read-out: Vz/F. It counts as ADME, organism-based.
Data set [5] can be described thus: AUC (0 to 24 hrs) in BALB/c RAG2-/- gammaC-/- mouse at 10 mg/kg, ip using 80% saline 10% Tween20 and 10% DMSO formulation measured up to 24 hrs by UPLC-triple quadrupole MS analysis. The class given is ADME, organism-based. Further details: route intraperitoneal, dose 10 mg/kg, time <=24. The conditions noted are these: in vivo.
Data set [6] deals with T2, CYP1A2 (Homo sapiens, UniProt P05177).
T2 sequence (P05177 whole entry): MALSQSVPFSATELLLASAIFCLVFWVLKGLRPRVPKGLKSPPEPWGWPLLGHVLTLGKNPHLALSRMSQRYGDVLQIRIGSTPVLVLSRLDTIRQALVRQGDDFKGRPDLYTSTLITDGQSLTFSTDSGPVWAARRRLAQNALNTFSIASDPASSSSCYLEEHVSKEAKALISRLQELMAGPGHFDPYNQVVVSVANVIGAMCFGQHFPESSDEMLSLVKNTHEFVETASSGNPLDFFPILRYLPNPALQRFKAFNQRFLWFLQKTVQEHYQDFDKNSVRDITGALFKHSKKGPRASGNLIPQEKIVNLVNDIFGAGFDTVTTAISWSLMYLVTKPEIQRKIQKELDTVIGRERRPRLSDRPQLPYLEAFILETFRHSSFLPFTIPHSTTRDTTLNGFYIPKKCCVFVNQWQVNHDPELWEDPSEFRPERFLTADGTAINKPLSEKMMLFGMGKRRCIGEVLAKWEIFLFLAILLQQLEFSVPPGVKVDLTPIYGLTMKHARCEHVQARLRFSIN
In words: Inhibition of CYP1A2 in human liver microsomes at 10 uM incubated for 10 mins in presence of NADPH by LC-MS/MS analysis relative to control. It counts as ADME. On the technique in general: Liver microsomes are a subcellular fraction often used to study metabolism.

For data set [7], the target named is CYP2C9 (Homo sapiens, UniProt P11712). Put plainly: Inhibition of CYP2C9 in human liver microsomes at 10 uM incubated for 10 mins in presence of NADPH by LC-MS/MS analysis relative to control. The class given is ADME.
CYP2C9, sequence (P11712 whole entry): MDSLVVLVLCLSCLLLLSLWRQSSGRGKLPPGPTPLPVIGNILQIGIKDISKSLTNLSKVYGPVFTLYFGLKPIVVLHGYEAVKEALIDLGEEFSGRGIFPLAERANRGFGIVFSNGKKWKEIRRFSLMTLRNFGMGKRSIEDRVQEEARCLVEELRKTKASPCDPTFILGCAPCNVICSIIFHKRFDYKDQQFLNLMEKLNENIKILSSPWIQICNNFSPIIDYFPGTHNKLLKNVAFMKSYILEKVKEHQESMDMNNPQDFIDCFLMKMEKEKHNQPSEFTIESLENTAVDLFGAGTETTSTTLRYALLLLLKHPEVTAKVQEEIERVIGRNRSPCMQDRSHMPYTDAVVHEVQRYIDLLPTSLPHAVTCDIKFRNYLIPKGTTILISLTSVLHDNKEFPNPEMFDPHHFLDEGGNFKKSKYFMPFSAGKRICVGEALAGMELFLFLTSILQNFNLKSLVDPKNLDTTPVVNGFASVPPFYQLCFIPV
Data set [8] is described as follows: Intrinsic clearance in human pooled hepatocytes. The note with it: read-out: CLH. It counts as ADME, cell-based, Hepatocyte.
Data set [9] can be described thus: Half life in BALB/c RAG2-/- gammaC-/- mouse at 10 mg/kg, ip using 80% saline 10% Tween20 and 10% DMSO formulation measured up to 24 hrs by UPLC-triple quadrupole MS analysis. It counts as ADME, organism-based. The note with it: in vivo.
Data set [10] can be described thus: AUC (0 to 24 hrs) in BALB/c RAG2-/- gammaC-/- mouse at 10 mg/kg, ip measured up to 24 hrs by UPLC-triple quadrupole MS analysis. The class given is ADME, organism-based. The arrangement: route intraperitoneal, dose 10 mg/kg, time <=24. The note with it: in vivo.
Data set [11] in a line: Intrinsic clearance in mouse pooled hepatocytes. The class given is ADME, cell-based, Hepatocyte. The conditions noted are these: read-out: CLH.
Data set [12] can be described thus: Apparent oral clearance in BALB/c RAG2-/- gammaC-/- mouse at 10 mg/kg, ip using 80% saline 10% Tween20 and 10% DMSO formulation measured up to 24 hrs by UPLC-triple quadrupole MS analysis. It counts as ADME, organism-based. The note with it: in vivo.
Data set [13] is described as follows: Stability of the compound in mouse pooled hepatocytes assessed as parent compound remaining incubated for 60 mins. It counts as ADME, cell-based, Hepatocyte. The note with it: read-out: Stabilty.
Data set [14] is described as follows: Stability of the compound in human pooled hepatocytes assessed as parent compound remaining incubated for 60 mins. The note with it: read-out: Stabilty. It counts as ADME, cell-based, Hepatocyte.

DNA (cytosine-5)-methyltransferase 1, sequence (P26358 whole entry): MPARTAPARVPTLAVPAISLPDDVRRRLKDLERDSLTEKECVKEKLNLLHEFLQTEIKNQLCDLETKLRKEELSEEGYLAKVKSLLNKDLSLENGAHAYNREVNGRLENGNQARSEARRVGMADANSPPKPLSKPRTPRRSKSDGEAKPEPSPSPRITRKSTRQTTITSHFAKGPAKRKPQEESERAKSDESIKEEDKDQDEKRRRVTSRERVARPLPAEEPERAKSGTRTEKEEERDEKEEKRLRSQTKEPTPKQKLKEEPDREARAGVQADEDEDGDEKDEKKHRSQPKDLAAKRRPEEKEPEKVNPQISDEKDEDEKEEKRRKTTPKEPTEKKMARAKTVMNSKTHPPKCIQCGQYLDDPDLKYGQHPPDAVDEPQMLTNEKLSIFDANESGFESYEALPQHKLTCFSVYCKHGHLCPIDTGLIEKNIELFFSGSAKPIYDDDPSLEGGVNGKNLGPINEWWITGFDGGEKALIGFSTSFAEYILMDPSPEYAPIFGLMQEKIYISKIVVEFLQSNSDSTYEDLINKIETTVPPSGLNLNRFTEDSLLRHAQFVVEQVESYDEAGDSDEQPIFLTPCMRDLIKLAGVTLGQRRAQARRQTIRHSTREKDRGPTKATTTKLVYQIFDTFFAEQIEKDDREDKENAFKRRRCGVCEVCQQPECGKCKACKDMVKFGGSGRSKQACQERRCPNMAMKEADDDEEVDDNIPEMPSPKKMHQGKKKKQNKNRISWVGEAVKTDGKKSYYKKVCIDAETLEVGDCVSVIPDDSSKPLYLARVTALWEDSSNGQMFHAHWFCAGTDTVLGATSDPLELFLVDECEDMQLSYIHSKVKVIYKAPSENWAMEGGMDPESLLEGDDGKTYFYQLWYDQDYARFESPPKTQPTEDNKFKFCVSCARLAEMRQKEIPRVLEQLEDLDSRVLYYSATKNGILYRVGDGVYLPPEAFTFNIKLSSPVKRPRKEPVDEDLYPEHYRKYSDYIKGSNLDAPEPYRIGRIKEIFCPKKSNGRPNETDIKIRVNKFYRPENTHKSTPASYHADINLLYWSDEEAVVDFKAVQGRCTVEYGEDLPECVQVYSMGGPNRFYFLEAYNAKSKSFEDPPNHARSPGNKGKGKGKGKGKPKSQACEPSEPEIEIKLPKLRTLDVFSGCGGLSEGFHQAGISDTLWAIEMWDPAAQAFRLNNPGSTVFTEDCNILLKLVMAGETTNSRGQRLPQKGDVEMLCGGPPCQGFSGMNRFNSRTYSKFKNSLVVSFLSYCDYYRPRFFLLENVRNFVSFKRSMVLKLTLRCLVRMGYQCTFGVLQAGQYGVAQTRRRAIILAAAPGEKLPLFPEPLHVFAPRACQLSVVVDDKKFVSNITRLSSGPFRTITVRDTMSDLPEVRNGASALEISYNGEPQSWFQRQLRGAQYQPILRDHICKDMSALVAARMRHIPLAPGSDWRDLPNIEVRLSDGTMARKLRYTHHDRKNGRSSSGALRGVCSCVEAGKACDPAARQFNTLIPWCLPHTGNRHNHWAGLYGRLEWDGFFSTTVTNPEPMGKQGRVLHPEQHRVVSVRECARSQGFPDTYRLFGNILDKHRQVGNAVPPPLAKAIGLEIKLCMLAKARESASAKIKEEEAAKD
CYP2D6, sequence (P10635 whole entry): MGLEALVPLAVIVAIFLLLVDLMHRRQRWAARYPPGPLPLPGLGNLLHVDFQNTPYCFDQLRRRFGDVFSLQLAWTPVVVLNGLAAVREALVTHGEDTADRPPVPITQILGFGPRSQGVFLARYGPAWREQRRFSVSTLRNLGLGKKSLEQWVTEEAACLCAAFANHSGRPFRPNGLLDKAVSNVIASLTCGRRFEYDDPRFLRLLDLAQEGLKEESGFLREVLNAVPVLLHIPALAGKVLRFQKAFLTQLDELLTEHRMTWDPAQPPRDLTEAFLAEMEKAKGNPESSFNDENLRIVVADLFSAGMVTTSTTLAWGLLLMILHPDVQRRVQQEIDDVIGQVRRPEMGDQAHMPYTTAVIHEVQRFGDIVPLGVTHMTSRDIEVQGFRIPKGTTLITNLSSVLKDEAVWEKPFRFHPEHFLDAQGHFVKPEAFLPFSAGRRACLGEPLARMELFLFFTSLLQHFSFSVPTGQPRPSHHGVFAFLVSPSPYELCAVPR

By IC50 is commonly meant the concentration at which inhibition is half-maximal. Turning to `COc1cc2c(NCC3CCN(c4ncc(C(=O)NO)cn4)CC3)cc(-c3ccc(C)o3)nc2cc1OCCCN1CCCC1`, the 50% inhibitory concentration (IC50) was determined as 1160 nM in data set [1] and 152 nM in [2].
By inhibition is commonly meant the percentage by which the read-out fell short of the control. The term AUC(0-t) denotes exposure summed from dosing to a finite time, without extrapolation to infinity. The low end stands for less exposure, the high end for more exposure. In general, half-life refers to how long it takes for the measured level to halve. In general, CL/F refers to the apparent clearance, not corrected for the fraction that reaches the circulation. `COc1cc2nc(-c3ccc(C)o3)cc(NCC3CCN(c4ncc(C(=O)NO)cn4)CC3)c2cc1OC`: the inhibition at 10 min, 10 µM in [3] came out at 10.8%; in data set [6], 58.8%; in data set [7], 0%. In data set [4], the Vd/F was 6.56 L. For the same compound, the AUC(0-t) amounted to 0.916 µM·h in data set [5] and 0.591 µM·h in data set [10]. Besides, the CLint scaled in [8] stood at 54.2 mL/min/kg; in [11], 411 mL/min/kg. Also, in data set [9], the half-life was 8.46 h. For the same compound, in data set [12], the CL/F is 8.83 mL/min. Moreover, the remaining at 1 h in data set [13] turned out to be 14.3%; in [14], 50.8%.

For the origin of these results see ChEMBL document CHEMBL4834403, “Design and Synthesis of Novel Epigenetic Inhibitors Targeting Histone Deacetylases, DNA Methyltransferase 1, and Lysine Methyltransferase G9a with In Vivo Efficacy in Multiple Myeloma” (J Med Chem, 2021).
